The values below come from patent US9212170B2, “4-alkanoylamino-3-pyrazolone derivative” (Daiichi Sankyo Company, Limited, priority 2012, dated 2015).

Counter-ions that a name gives are not always drawn.

In the assay the test system is human liver cancer-derived cell line Hep3B. Briefly: In vitro erythropoietin (EPO) induction activity in Hep3B cells (human EPO ELISA of culture supernatant). The assay is classed as cell-based. The conditions noted are these: test compound 12.5 μM in 0.5% DMSO, 32 hours at 37° C., EPO in culture supernatant expressed as a multiple of the control (0.5% DMSO = 1), read-out: EPO concentration (multiple). How it is done:
In vitro erythropoietin (EPO) induction activity of test compounds was evaluated using human liver cancer-derived cell line Hep3B (ATCC, Manassas, Va.). Hep3B cells were cultured overnight at 37° C. in Dulbecco's modified Eagle's medium (DMEM) in the presence of 10% fetal bovine serum (FBS) (24-well plate, 1.0×10^5 cells/well). After replacing with fresh DMEM (+10% FBS) containing a test compound dissolved in 0.5% dimethyl sulfoxide (DMSO) (prepared to a concentration of 12.5 μM) or a solvent control (0.5% DMSO), the cells were cultured for 32 hours at 37° C. After recovering the culture supernatant, EPO concentration in the culture supernatant was quantified using human EPO ELISA kits (StemCell Technologies). The EPO concentration obtained using each test compound was expressed as a multiple of the EPO concentration obtained using the control.
For orientation: An ELISA detects its analyte on a solid surface through an enzyme-linked reagent.

For `CC(=O)Nc1c[nH]n(-c2ccc(C(=O)Nc3ccc(C4CCCCC4)cc3)cn2)c1=O` [Example 1, 6-(4-Acetamido-5-oxo-2,5-dihydro-1H-pyrazol-1-yl)-N-(4-cyclohexylphenyl)nicotinamide], the fold induction at 12.5 µM is 37. As to `CC(=O)Nc1c(C)[nH]n(-c2ccc(C(=O)Nc3ccc(C(F)(F)F)cc3)cn2)c1=O` [Example 16, 6-(4-Acetamido-3-methyl-5-oxo-2,5-dihydro-1H-pyrazol-1-yl)-N-[4-(trifluoromethyl)phenyl]nicotinamide], the fold induction at 12.5 µM amounted to 3.4. Then `CC(=O)Nc1c[nH]n(-c2ccc(C(=O)NCc3ccc(-c4ccccc4C#N)cc3)cn2)c1=O` [Example 12, 6-(4-Acetamido-5-oxo-2,5-dihydro-1H-pyrazol-1-yl)-N-[(2′-cyanobiphenyl-4-ylmethyl)]nicotinamide], with 2.8; and `Cc1[nH]n(-c2ccc(C(=O)Nc3ccc(-c4ccccc4)nc3)cn2)c(=O)c1NC(=O)CCC(=O)O` [Example 23, 4-[(5-Methyl-3-oxo-2-{5-[(6-phenylpyridyl-3-yl)carbamoyl]pyridin-2-yl}-2,3-dihydro-1H-pyrazol-4-yl)amino]-4-oxobutanoic acid], with 2.7; and `CC(=O)Nc1c[nH]n(-c2ccc(C(=O)Nc3ccc(Cl)cc3)cn2)c1=O` [Example 5, 6-(4-Acetamido-5-oxo-2,5-dihydro-1H-pyrazol-1-yl)-N-(4-chlorophenyl)nicotinamide], with 12. Take `CC(=O)Nc1c[nH]n(-c2ccc(COCc3cccc(-c4ccccc4)c3)cn2)c1=O` [Example 15, N-(2-{5-[(Biphenyl-3-ylmethoxy)methyl]pyridin-2-yl}-3-oxo-2,3-dihydro-1H-pyrazol-4-yl)acetamide]: the fold induction at 12.5 µM is 24. Under `CC(=O)Nc1c(C)[nH]n(-c2ccc(Cc3ccc(C(F)(F)F)cc3)cn2)c1=O` [Example 25, N-(5-Methyl-3-oxo-2-{5-[4-(trifluoromethyl)benzyl]pyridin-2-yl}-2,3-dihydro-1H-pyrazol-4-yl)acetamide] stands 16.

In the case of `CC(=O)Nc1c[nH]n(-c2ccc(C(=O)NCc3cccc(-c4ccccc4)c3)cn2)c1=O` [Example 11, 6-(4-Acetamido-5-oxo-2,5-dihydro-1H-pyrazol-1-yl)-N-(biphenyl-3-ylmethyl)nicotinamide], the fold induction at 12.5 µM was 41. For the compound `CC(=O)Nc1c[nH]n(-c2ccc(COCc3ccccc3)cn2)c1=O` [Example 8, N-(2-{5-[(Benzyloxy)methyl]pyridin-2-yl}-3-oxo-2,3-dihydro-1H-pyrazol-4-yl)acetamide], the fold induction at 12.5 µM was 26. Turning to `CC(=O)Nc1c(C)[nH]n(-c2ccc(/C=C/c3ccc(C(F)(F)F)cc3)cn2)c1=O` [Example 27, N-[5-Methyl-3-oxo-2-(5-{(E)-2-[4-(trifluoromethyl)phenyl]ethenyl}pyridin-2-yl)-2,3-dihydro-1H-pyrazol-4-yl]acetamide], the fold induction at 12.5 µM stood at 2.7.

With `CC(=O)Nc1c(C)[nH]n(-c2ccc(C(=O)Nc3ccc(Br)cc3)cn2)c1=O` [Example 18, 6-(4-Acetamido-3-methyl-5-oxo-2,5-dihydro-1H-pyrazol-1-yl)-N-(4-bromophenyl)nicotinamide], the fold induction at 12.5 µM amounted to 3.3. In the case of `CC(=O)Nc1c[nH]n(-c2ccc(COCc3ccc(-c4ccccc4)cc3)cn2)c1=O` [Example 14, N-(2-{5-[(Biphenyl-4-ylmethoxy)methyl]pyridin-2-yl}-3-oxo-2,3-dihydro-1H-pyrazol-4-yl)acetamide], the fold induction at 12.5 µM amounted to 22.

On to `Cc1[nH]n(-c2ccc(C(=O)Nc3ccc(-c4ccccc4)nc3)cn2)c(=O)c1NC(=O)CCC(=O)OC(C)(C)C` [Example 22, Tert-butyl 4-[(5-methyl-3-oxo-2-{5-[(6-phenylpyridyl-3-yl)carbamoyl]pyridin-2-yl}-2,3-dihydro-1H-pyrazol-4-yl)amino]-4-oxobutanoate], for which the fold induction at 12.5 µM turned out to be 1.9. Under `CC(=O)Nc1c(C)[nH]n(-c2ccc(C(=O)Nc3ccc(-c4ccccc4)nc3)cn2)c1=O` [Example 20, 6-(4-Acetamido-3-methyl-5-oxo-2,5-dihydro-1H-pyrazol-1-yl)-N-(6-phenylpyridin-3-yl)nicotinamide] stands 3.7; under `CC(=O)Nc1c(C)[nH]n(-c2ccc(COCc3ccc(C(F)(F)F)cc3)cn2)c1=O` [Example 24, N-{5-Methyl-3-oxo-2-[5-({[4-(trifluoromethyl)benzyl]oxy}methyl)pyridin-2-yl]-2,3-dihydro-1H-pyrazol-4-yl}acetamide], 22; under `CC(=O)Nc1c(C)[nH]n(-c2ccc(C(=O)Nc3ccc(C(C)(C)C)cc3)cn2)c1=O` [Example 19, 6-(4-Acetamido-3-methyl-5-oxo-2,5-dihydro-1H-pyrazol-1-yl)-N-(4-tert-butylphenyl)nicotinamide], 13. Then `CC(=O)Nc1c(C)[nH]n(-c2ccc(CCc3ccc(C(F)(F)F)cc3)cn2)c1=O` [Example 26, N-[5-Methyl-3-oxo-2-(5-{2-[4-(trifluoromethyl)phenyl]ethyl}pyridin-2-yl)-2,3-dihydro-1H-pyrazol-4-yl]acetamide], with 22; and `CC(=O)Nc1c[nH]n(-c2ccc(C(=O)Nc3cccc(C(C)(C)C)c3)cn2)c1=O` [Example 3, 6-(4-Acetamido-5-oxo-2,5-dihydro-1H-pyrazol-1-yl)-N-(3-tert-butylphenyl)nicotinamide], with 17; and `CC(=O)Nc1c[nH]n(-c2ccc(COCc3ccc(-c4ccccc4C#N)cc3)cn2)c1=O` [Example 13, N-[2-(5-{[(2′-Cyanobiphenyl-4-yl)methoxy]methyl}pyridin-2-yl)-3-oxo-2,3-dihydro-1H-pyrazol-4-yl]acetamide], with 29.

As for `CC(=O)Nc1c[nH]n(-c2cc(NCCc3ccccc3)ncn2)c1=O` [Example 9, N-(3-Oxo-2-{6-[(2-phenylethyl)amino]pyrimidin-4-yl}-2,3-dihydro-1H-pyrazol-4-yl)acetamide], the fold induction at 12.5 µM amounted to 6.1. On to `CC(=O)Nc1c[nH]n(-c2ccc(C(=O)Nc3ccc(C(C)(C)C)cc3)cn2)c1=O` [Example 2, 6-(4-Acetamido-5-oxo-2,5-dihydro-1H-pyrazol-1-yl)-N-(4-tert-butylphenyl)nicotinamide], for which the fold induction at 12.5 µM worked out at 36.

Take `CC(=O)Nc1c(C)[nH]n(-c2ccc(COCc3ccc(-c4ccccc4C#N)cc3)cn2)c1=O` [Example 21, N-[2-(5-{[(2′-Cyanobiphenyl-4-yl)methoxy]methyl}pyridin-2-yl)-5-methyl-3-oxo-2,3-dihydro-1H-pyrazol-4-yl]acetamide]: the fold induction at 12.5 µM is 20. For `CC(=O)Nc1c[nH]n(-c2cc(COCc3ccccc3)ccn2)c1=O` [Example 10, N-(2-{4-[(Benzyloxy)methyl]pyridin-2-yl}-3-oxo-2,3-dihydro-1H-pyrazol-4-yl)acetamide], the fold induction at 12.5 µM amounted to 23. On to `CC(=O)Nc1c[nH]n(-c2ccc(C(=O)Nc3ccc(C(F)(F)F)cc3)cn2)c1=O` [Example 4, 6-(4-Acetamido-5-oxo-2,5-dihydro-1H-pyrazol-1-yl)-N-[4-(trifluoromethyl)phenyl]nicotinamide], for which the fold induction at 12.5 µM was 17.

Regarding `CC(=O)Nc1c[nH]n(-c2cc(N3CCCCC3)ncn2)c1=O` [Example 7, N-[3-Oxo-2-(6-piperidin-1-ylpyrimidin-4-yl)-2,3-dihydro-1H-pyrazol-4-yl]acetamide formate], the fold induction at 12.5 µM came to 29. As to `CC(=O)Nc1c[nH]n(-c2cc(N3CCOCC3)ncn2)c1=O` [Example 6, N-[2-(6-Morpholin-4-ylpyrimidin-4-yl)-3-oxo-2,3-dihydro-1H-pyrazol-4-yl]acetamide formate], the fold induction at 12.5 µM was 13.

Regarding `CC(=O)Nc1c(C)[nH]n(-c2ccc(C(=O)Nc3ccc(Cl)cc3)cn2)c1=O` [Example 17, 6-(4-Acetamido-3-methyl-5-oxo-2,5-dihydro-1H-pyrazol-1-yl)-N-(4-chlorophenyl)nicotinamide], the fold induction at 12.5 µM turned out to be 4.3.
